Data published in ChEMBL document CHEMBL3638678, “4-substituted-cyclohexylamino-4-piperidinyl-acetamide antagonists of CCR2” (2014).

Target: C-C chemokine receptor type 2 (Homo sapiens, UniProt P41597)
Assay: Binding Assay: MCP-1 Receptor Binding Assay in THP-1 Cells Human monocytic cell line THP-1 cells were obtained from American Type Culture Collection (Manassas, Va., USA). The THP-1 cells were grown in RPMI-1640 (RPMI: Roswell Park Memorial Institute Medium-cell culture growth media) supplemented with 10% fetal bovine serum in a humidified 5% CO2 atmosphere at 37 C. The cell density was maintained between 0.5x10^6 cells/mL.THP-1 (cells were incubated with 0.5 nM 125I labeled MCP-1 (Perkin-Elmer Life Sciences, Inc. Boston, Mass.) in the presence of varying concentrations of either unlabeled MCP-1 (R & D Systems, Minneapolis, Minn.) or test compound for 2 hours at 30 C. in a 96 well plate. Cells were then harvested onto a filter plate, dried, and 20 uL of Microscint 20 was added to each well. Plates were counted in a TopCount NXT, Microplate Scintillation & Luminescence Counter (Perkin-Elmer Life Sciences, Inc. Boston, Mass.).
Type: cell-based

Sequence of C-C chemokine receptor type 2 (P41597 whole entry): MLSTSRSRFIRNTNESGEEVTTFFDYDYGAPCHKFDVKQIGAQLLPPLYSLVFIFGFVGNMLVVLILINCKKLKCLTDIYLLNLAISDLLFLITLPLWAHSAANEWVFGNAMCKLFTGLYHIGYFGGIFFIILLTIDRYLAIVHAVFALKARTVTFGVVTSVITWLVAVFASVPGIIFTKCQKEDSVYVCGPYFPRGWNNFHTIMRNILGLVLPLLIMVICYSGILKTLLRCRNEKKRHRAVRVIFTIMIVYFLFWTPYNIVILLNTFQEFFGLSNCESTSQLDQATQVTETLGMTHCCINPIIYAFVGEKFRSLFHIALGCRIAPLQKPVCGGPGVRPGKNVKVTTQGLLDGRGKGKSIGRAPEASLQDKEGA

With CC1(C)Cc2cc(/C=C/C(=O)N3CCC(C(NC4CCC(c5c[nH]c6ccccc56)CC4)C(N)=O)CC3)ccc2O1 (stereo unspecified) the IC50 was 1100 nM.
